According to patent US11597708B2, “Inhibitors of heat shock factors and uses thereof” (HSF Pharmaceuticals SA, priority 2016, dated 2023):
Counter-ions that a name gives are not always drawn. Like-named read-outs stand apart in the source and are kept apart here.

How the values were obtained:
HSF1 = molecular target: T1, HSF1 (Homo sapiens, UniProt Q00613); experiment: Z74 cell-based reporter assay: heat-induced RLuc expression controlled by endogenous HSF1; details: for IC50: inhibition of HSF1 activity [RLuc]; for inhibition at 12.5 µM: read-out: Inhibition of HSF1 activity at 12.5 μM IHSF [RLuc] (%); for inhibition at 25 µM: read-out: Inhibition of HSF1 activity at 25 μM IHSF [RLuc] (%)
T1 construct: functionally linked to an hsp70b promoter and therefore controlled by endogenous HSF1; endogenous in cells; host or cells: HeLa cells / HeLa-derived cell line Z74
T1 sequence (Q00613 1-529): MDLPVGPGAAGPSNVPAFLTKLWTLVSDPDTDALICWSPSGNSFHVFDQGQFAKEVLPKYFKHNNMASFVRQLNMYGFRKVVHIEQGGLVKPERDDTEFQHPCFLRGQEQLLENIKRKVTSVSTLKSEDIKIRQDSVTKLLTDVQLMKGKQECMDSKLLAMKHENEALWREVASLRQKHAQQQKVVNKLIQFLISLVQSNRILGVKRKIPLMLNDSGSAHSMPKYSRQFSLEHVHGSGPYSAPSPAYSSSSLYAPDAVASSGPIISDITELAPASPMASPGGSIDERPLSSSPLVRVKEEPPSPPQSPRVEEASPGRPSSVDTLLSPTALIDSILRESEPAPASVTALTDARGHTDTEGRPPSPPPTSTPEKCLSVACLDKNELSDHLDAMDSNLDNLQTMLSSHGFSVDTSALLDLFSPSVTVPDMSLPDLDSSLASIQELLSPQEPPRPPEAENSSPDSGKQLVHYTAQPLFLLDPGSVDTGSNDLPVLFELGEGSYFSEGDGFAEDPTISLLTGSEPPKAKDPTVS
From the text: For screening this sublibrary, a cell-based assay was developed. We opted for a cell-based assay, because a cell-free assay would have had to be a DNA-binding assay. Such an assay would have limited discovery to molecules capable of interfering with the DNA-binding function of HSF1. This was thought to be too narrow a focus, considering that three of the four cavities identified in the HSF1 DNA-binding domain are not near the DNA interaction region. A straightforward cell-based assay, in which a HSF1-responsive gene would be assayed, was considered likely to be over-inclusive. Compounds would be scored as hits that inhibit any factor that is involved in HSF1 activation or prevents HSF1 deactivation. These factors include protein kinases, activators of protein phosphatases, factors affecting HSF1 mRNA stability, HSP90, HDAC6, etc. For developing a more discriminating cell-based assay, advantage was taken of the modular nature of HSF1. […] The cell-based assay developed (see below for the particular format employed) compared transactivation by wild type HSF1 and chimeric HSF1 in cells exposed to an HSF1-activating heat treatment in the presence of a sublibrary compound. A compound was scored as a hit, if it inhibited the activity of wild type HSF1 but not of chimeric HSF1.
The cell-based assay made use of HeLa-derived cell line Z74 that stably contains a gene for chimeric transcription factor LexA-(human) HSF1 under the control of a CMV early promoter, a firefly luciferase (flue) gene driven by a promoter responsive to the latter chimeric transcription factor and a Renilla luciferase (rluc) gene functionally linked to an hsp70b promoter and therefore controlled by endogenous HSF1 (FIG. 1A). As is shown in FIGS. 1B & C, the reporter genes responded similarly to heat dose, i.e., their activation depended on both duration of heat exposure and temperature of the exposure. […] Depletion of HSF1 (and LexA-HSF1) by siRNA supported the notion that this stress regulation is mediated by HSF1 (and LexA-HSF1). Therefore, the Z74 line was well suited for use in a screening assay aimed at discovering molecules that inhibit heat-induced HSF1 activity through interaction with the transcription factor's DNA-binding domain.
The compounds of the afore-mentioned biased sublibrary were screened in cell line Z74 at 12.5 and 25 μM concentrations. Typically, Z74 cultures in 96-well plates were exposed to compound or vehicle for 2 h, heat-treated at 43.0° C. for 30 min, and incubated further for 6 h at 37° C. to allow for accumulation of the luciferases. RLuc and FLuc activities were determined, typically using the Dual-Glo® Luciferase Assay System (Promega Corp., Madison, Wis.), and reading luciferase light counts in a Wallac Microbeta Trilux-1450 Luminometer (PerkinElmer, Waltham, Mass.). IHSF 001 was one of two library compounds that inhibited RLuc expression but not FLuc expression in heat-treated Z74 cells (Table 1; FIG. 2A). Therefore, IHSF 001 is an inhibitor of HSF1 function that specifically acts through the HSF1 DNA-binding domain. […] A corroborating experiment utilized a cell line containing an hsp70b promoter-driven fluc gene. […] IHSF 001 is (E)-ethyl 4-oxo-4-(thiazol-2-ylamino)but-2-enoate. The compound can be obtained from commercial sources (e.g., AKE-PB-90340538, Akos).

HSE DNA-binding activity = molecular target: T2, HSE DNA-binding activity (Homo sapiens, UniProt Q00613); experiment: EMSA using extracts of heat-treated HeLa cells, in the presence of IHSF; assay type: biochemical; details: extracts of HeLa cells heat-treated at 43° C. for 30 min; concentrations as high as about 0.5 mM
T2 construct: functionally linked to an hsp70b promoter and therefore controlled by endogenous HSF1; endogenous in cells; host or cells: HeLa cells / HeLa-derived cell line Z74
T2 sequence (Q00613 1-529): T1 sequence (Q00613 1-529)
Protocol: Electrophoretic mobility shift assays (EMSA) using a radiolabeled HSE DNA probe were carried out to assess HSF1 DNA-binding activity in extracts of heat-treated (43° C./30 min) HeLa cells that had been exposed to different concentrations of compounds 058 or 115 (FIG. 3A, top panels). […] HSF1 degradation correlated well with the observed decrease in DNA-binding activity. Therefore, HSF1 degradation provides a sufficient explanation for the reduced HSE DNA-binding activity in cells treated with IHSF 058. […] EMSA were also carried out using extracts of HeLa cells that had been heat-treated at 43° C. for 30 min.

[1] = Z74 cells, 12.5 μM IHSF, negative values marked *: compound enhanced rLuc activity
[2] = Z74 cells, 25 μM IHSF, 2 h exposure, 43° C. 30 min, 6 h at 37° C.

| IC50 (HSF1; Z74 cells) | inhibition at 12.5 µM (HSF1; [1]) | inhibition at 25 µM (HSF1; [2]) | HSE DNA-binding activity (EMSA) in the presence of IHSF (HSE DNA-binding activity) | Structure (SMILES) | inhibition at 12.5 µM (HSF1) | inhibition at 25 µM (HSF1) |
| --- | --- | --- | --- | --- | --- | --- |
| 7.4 µM | 57% | 71% | no reduction | CCOC(=O)/C=C/C(=O)Nc1nc(C)c(C)s1 [IHSF 052, (E)-3-(4,5-Dimethyl-thiazol-2-ylcarbamoyl)-acrylic acid ethyl ester] |  |  |
| 7 µM | 69% | 83% | no reduction | CCOC(=O)/C=C/C(=O)Nc1nc(C)cs1 [IHSF 011, (E)-3-(4-Methyl-thiazol-2-ylcarbamoyl)-acrylic acid ethyl ester] |  |  |
| 9.6 µM | 72% | 92% | no reduction | CCOC(=O)/C=C/C(=O)Nc1nc(C)c(-c2ccccc2)s1 [IHSF 051, (E)-3-(4-Methyl-5-phenyl-thiazol-2-ylcarbamoyl)-acrylic acid ethyl ester] |  |  |
|  | 40% | 61% | no reduction | CCOC(=O)/C=C/C(=O)Nc1ccnc2ccccc12 [IHSF 050, (E)-3-(Quinolin-4-ylcarbamoyl)-acrylic acid ethyl ester] |  |  |
|  | 53% | 85% | no reduction | CCOC(=O)/C=C/C(=O)Nc1ccnc(-c2ccccc2)c1 [IHSF 049, (E)-3-(2-Phenyl-pyridin-4-ylcarbamoyl)-acrylic acid ethyl ester] |  |  |
| 23.6 µM | 20% | 53% |  | CCOC(=O)/C=C/C(=O)Nc1nncs1 [IHSF 018, (E)-3-([1,3,4]Thiadiazol-2-ylcarbamoyl)-acrylic acid ethyl ester] |  |  |
| 11.2 µM | 53% | 88% |  | CCOC(=O)/C=C/C(=O)Nc1nc(C(N)=O)c(-c2ccccc2)s1 [IHSF 109, (E)-3-(4-Carbamoyl-5-phenyl-thiazol-2-ylcarbamoyl)-acrylic acid ethyl ester] |  |  |
|  | 12% | 18% |  | Cc1csc(NC(=O)/C=C/C(=O)N(C)C)n1 [IHSF 061, (E)-But-2-enedioic acid dimethyl-amide (4-methyl-thiazol-2-yl)-amide] |  |  |
| 19.6 µM | -6% | 89% |  | CCOC(=O)/C=C/C(=O)N(CCc1cn(C)cn1)c1nccs1 [IHSF 108] |  |  |
|  | 47% | 78% |  | CCOC(=O)/C=C/C(=O)Nc1ccnc(-c2cccnc2)c1 [IHSF 086, (E)-3-([2,3′]Bipyridmyl-4-ylcarbamoyl)-acrylic acid ethyl ester] |  |  |
|  | 40% | 65% | no reduction | CCOC(=O)/C=C/C(=O)Nc1ncc(C#N)s1 [IHSF 057, (E)-3-(5-Cyano-thiazol-2-ylcarbamoyl)-acrylic acid ethyl ester] |  |  |
|  | 33% | 70% |  | CCOC(=O)/C=C/C(=O)Nc1cc(C)no1 [IHSF 046, (E)-3-(3-Methyl-isoxazol-5-ylcarbamoyl)-acrylic acid ethyl ester] |  |  |
|  |  |  |  | CCOC(=O)/C=C/C(=O)Nc1ccnc(N2CCOCC2)c1 [IHSF 077, (E)-3-(2-Morpholin-4-yl-pyridin-4-ylcarbamoyl)-acrylic acid ethyl ester formic acid salt] | 42% | 67% |
|  | 34% | 50% |  | CCOC(=O)/C=C/C(=O)Nc1ncc(C)s1 [IHSF 013, (E)-3-(5-Methyl-thiazol-2-ylcarbamoyl)-acrylic acid ethyl ester] |  |  |
| 23.5 µM | 30% | 53% |  | CCOC(=O)/C=C/C(=O)Nc1ccncc1 [IHSF 020, (E)-3-(Pyridin-4-ylcarbamoyl)-acrylic acid ethyl ester] |  |  |
|  | 55% | 71% |  | CCOC(=O)/C=C/C(=O)Nc1ccnc(-c2cccc(C)c2)c1 [IHSF 080, (E)-3-(2-m-Tolyl-pyridin-4-ylcarbamoyl)-acrylic acid ethyl ester] |  |  |
|  | 0% | 20% |  | CCOC(=O)/C=C/C(=O)Nc1ncco1 [IHSF 015, (E)-3-(Oxazol-2-ylcarbamoyl)-acrylic acid ethyl ester] |  |  |
|  | 56% | 56% |  | CCOC(=O)/C=C/C(=O)Nc1nc2ccccc2s1 [IHSF 010, (E)-3-(Benzothiazol-2-ylcarbamoyl)-acrylic acid ethyl ester] |  |  |
| 18 µM | 17% | 95% |  | CCOC(=O)/C=C/C(=O)N(CCc1ccncc1)c1nccs1 [IHSF 099, (E)-3-[(2-Pyridin-4-yl-ethyl)-thiazol-2-yl-carbamoyl]-acrylic acid ethyl ester] |  |  |
|  | 37% | 67% |  | CCOC(=O)/C=C/C(=O)Nc1ccnc(C)c1 [IHSF 048, (E)-3-(2-Methyl-pyridin-4-ylcarbamoyl)-acrylic acid ethyl ester] |  |  |
| 19.8 µM | 35% | 61% |  | CCOC(=O)/C=C/C(=O)Nc1nc(-c2ccncc2)cs1 [IHSF 056, (E)-3-(4-Pyridin-4-yl-thiazol-2-lcarbamoyl)-acrylic acid ethyl ester] |  |  |
|  | 1% | 52% |  | CCCCOC(=O)/C=C/C(=O)Nc1nccs1 [IHSF 042, (E)-3-(Thiazol-2-ylcarbamoyl)-acrylic acid butyl ester] |  |  |
|  | 25% | 31% |  | O=C(/C=C/c1ncccn1)Nc1nccs1 [IHSF 088, (E)-3-(Pyrimidin-2-yl)-N-(thiazol-2-yl)acrylamide] |  |  |
| 11.3 µM | 68% | 86% |  | CCOC(=O)/C=C/C(=O)Nc1nc(-c2ccccc2)cs1 [IHSF 012, (E)-3-(4-Phenyl-thiazol-2-ylcarbamoyl)-acrylic acid ethyl ester] |  |  |
|  | 18% | 42% |  | COC(=O)/C=C/C(=O)Nc1nccs1 [IHSF 027, (E)-3-(Thiazol-2-ylcarbamoyl)-acrylic acid methyl ester] |  |  |
